Here are results for 15 molecules from article PMC9848300, “Discovery of novel enasidenib analogues targeting inhibition of mutant isocitrate dehydrogenase 2 as antileukaemic agents” (Journal of Enzyme Inhibition and Medicinal Chemistry, 2023).

By inhibition is commonly meant the relative decrease from the control value, in per cent.

Holding throughout (format): cell-based
One test deals with HCT-15. The test is described as follows: NCI 60 antitumor screening (single dose / five doses). The following applies: Homo sapiens.
The next test concerns HL-60(TB). The test is described as above. The following applies: Homo sapiens.
For test [1], the system named is 60 human subpanel cancer cell lines. The test can be described thus: NCI 60 antitumor screening, mean over the panel (single dose). The following applies: mean over 60 cancer cell lines, single dose 10 μM. How it is done: Initially, the anticancer effects of target compounds have been assessed at a single (10 μM) dose. The obtained data have been reported as mean-graph of the percent growth (G%) of the treated cancer cells. Percentage growth inhibition (GI%) is calculated (100 − G%) and pronounced in Table 1. […] Target compounds in series (III) with manipulated linkers disclosed lower potency. Superiorly, eight s-triazine derivatives from the three series (6a, 6c, 6d, 7a, 7g, 7i, 7l, and 8b) have shown potent broad-spectrum anticancer activity against most the examined cell lines, whereas most of the remaining triazine derivatives, 20 derivatives, have exerted selective anti-proliferative actions towards certain cancer cell lines (Supplementary).
The antitumor screening was performed for 60 human cancer cell lines under the protocol of NCI (www.dtp.nci.nih.gov), the Drug Evaluation Branch, Bethesda, MD. All submitted compounds were nominated based on the degree of structural diversity and computer modelling techniques for evaluation of their anticancer activity. The screening process for antineoplastic activity passes through two successive levels, starting with the assessment of target compounds at a single dose of 10 μM against 60 cancer cell lines on nine types of human tumours. These experiments were done on a triplicate following. The output from the single‐dose screening was covered as a mean graph, and then, analysed by the COMPARE program. Finally, the compounds which disclosed subpanel cancer cell growth (G %) equal to or less than 10% in at least eight cancer cell lines get to pass the assessment against the 60 cell lines at five doses (0.01–100 μM). By using GraphPad Prism version 9.0 (Graphpad Software Inc., La Jolla, CA), GI50, TGI, as well as LC50 dose‐response parameters were computed and presented for each compound (Supplementary information)[55–57].

Another test deals with SF-295. The test is described as follows: NCI 60 antitumor screening (single dose / five doses). The following applies: Homo sapiens.
The test system of the next test is RPMI-8226. The description is as above. The following applies: Homo sapiens.
In a further test the test system is RXF 393. Described as above. The following applies: Homo sapiens.
Setting [2] is: HCT-15 (colon cancer), single dose 10 μM, read-out: Growth inhibition percentage (GI %).
Setting [3] is: HL-60(TB) (leukaemia), single dose 10 μM, read-out: Growth inhibition percentage (GI %).
[4] abbreviates: SF-295 (CNS cancer), single dose 10 μM, read-out: Growth inhibition percentage (GI %).
Where [5] appears, read: RPMI-8226 (leukaemia), single dose 10 μM, read-out: Growth inhibition percentage (GI %).
Setting [6] is: RXF 393 (renal cancer), single dose 10 μM, read-out: Growth inhibition percentage (GI %).
The mark [7] stands for this setting: HCT-15, read-out: Growth inhibition percentage (GI %).
The mark [8] stands for this setting: HL-60, read-out: Growth inhibition percentage (GI %).
Setting [9] is: SF-295, read-out: Growth inhibition percentage (GI %).
The mark [10] stands for this setting: RPMI-8226, read-out: Growth inhibition percentage (GI %).
Setting [11] is: RXF 393, read-out: Growth inhibition percentage (GI %).

Molecules are shown by their SMILES. Like-named read-outs stand apart in the source and are kept apart here.

As for `Brc1ccccc1/C=N/Nc1nc(N/N=C/c2ccccc2Br)nc(N2CCOCC2)n1` [compound 6b, 2,4-Bis[(E)-2-[(2-bromophenyl)methylidene]hydrazin-1-yl]-6-(morpholin-4-yl)-1,3,5-triazine], the inhibition at 10 µM in the test with HCT-15 (setting [2]) came to 18.9%; in the test on HL-60(TB) (setting [3]) it was 19.5%; in the test with SF-295 (setting [4]), 14.5%; in the test with RPMI-8226 (setting [5]), 35%; in the test on RXF 393 (setting [6]), 30.4%. In addition, in test [1], the “Mean GI %” value turned out to be 7.16%.

For the molecule `O=[N+]([O-])c1cccc(/C=N/Nc2nc(N/N=C/c3cccc([N+](=O)[O-])c3)nc(N3CCOCC3)n2)c1` [compound 6f, 2-(Morpholin-4-yl)-4,6-bis[(E)-2-[(3-nitrophenyl)methylidene]hydrazin-1-yl]-1,3,5-triazine], the inhibition at 10 µM came to 53.2% in the test on HCT-15 (setting [7]); 47.8% in the test on HL-60(TB) (setting [8]); 13.7% with SF-295 (setting [9]); 66.4% in the test with RPMI-8226 (setting [10]); 28.1% with RXF 393 (setting [11]). Besides, the “Mean GI %” value in test [1] was 23.39%.

For the molecule `Clc1cccc(/C=N/Nc2nc(N/N=C/c3cccc(Cl)c3Cl)nc(N3CCOCC3)n2)c1Cl` [compound 6h, 2,4-Bis[(E)-2-[(2,3-Dichlorophenyl)methylidene]hydrazin-1-yl]-6-(morpholin-4-yl)-1,3,5-triazine], the inhibition at 10 µM is 15.2% in the test on HCT-15 (setting [2]); -3.95% in the test on HL-60(TB) (setting [3]); 18% in the test with SF-295 (setting [4]); 12.1% in the test with RPMI-8226 (setting [5]); 5.06% in the test with RXF 393 (setting [6]). In addition, the “Mean GI %” value in test [1] was 9.97%.

Turning to `O=[N+]([O-])c1cc(/C=N/Nc2nc(N/N=C/c3ccc(Cl)c([N+](=O)[O-])c3)nc(N3CCOCC3)n2)ccc1Cl` [compound 6i, 2,4-Bis[(E)-2-[(4-Chloro-3-nitrophenyl)methylidene]hydrazin-1-yl]-6-(morpholin-4-yl)-1,3,5-triazine], the inhibition at 10 µM with HCT-15 (setting [7]) is 8.38%; in the test on HL-60(TB) (setting [8]) it was 13.7%; with SF-295 (setting [9]), -7.07%; with RPMI-8226 (setting [10]), 42.8%; in the test on RXF 393 (setting [11]), -20.7%. Besides, in test [1], the “Mean GI %” value is recorded as 0.67%.

In the case of `Oc1ccc(/C=N/Nc2nc(N/N=C/c3ccc(O)c(O)c3)nc(N3CCOCC3)n2)cc1O` [compound 6j, 4-[(1e)-(2-{4-[(E)-2-[(3,4-Dihydroxyphenyl)methylidene]hydrazin-1-yl]-6-(morpholin-4-yl)-1,3,5-triazin-2-yl}hydrazin-1-ylidene)methyl]benzene-1,2-diol], the inhibition at 10 µM in the test on HCT-15 (setting [2]) is -2.93%; in the test with HL-60(TB) (setting [3]) it was 0.38%; in the test with SF-295 (setting [4]), -3.97%; with RPMI-8226 (setting [5]), -3.09%; in the test with RXF 393 (setting [6]), -20.4%. In addition, the “Mean GI %” value in test [1] is on record as -2.12%.

With `C(=N\Nc1nc(N/N=C/c2ccc3c(c2)OCO3)nc(N2CCOCC2)n1)/c1ccc2c(c1)OCO2` [compound 6k, 2,4-Bis[(E)-2-(2H-1,3-Benzodioxol-5-ylmethylidene)hydrazin-1-yl]-6-(morpholin-4-yl)-1,3,5-triazine], the inhibition at 10 µM was 41.5% in the test on HCT-15 (setting [2]); 61.1% with HL-60(TB) (setting [3]); 9.09% with SF-295 (setting [4]); 40.3% with RPMI-8226 (setting [5]); 30.5% in the test on RXF 393 (setting [6]). Further, the “Mean GI %” value in test [1] is 20.69%.

`Brc1ccccc1/C=N/Nc1nc(N/N=C/c2ccccc2Br)nc(N2CCCCC2)n1` [compound 7b, 2,4-Bis[(E)-2-[(2-Bromophenyl)methylidene]hydrazin-1-yl]-6-(piperidin-1-yl)-1,3,5-triazine]: the inhibition at 10 µM in the test with HCT-15 (setting [2]) was 1.2%; with HL-60(TB) (setting [3]), -3.87%; with SF-295 (setting [4]) it was -3.22%; in the test with RPMI-8226 (setting [5]) it was -0.33%; in the test on RXF 393 (setting [6]), 2.13%. Further, the “Mean GI %” value in test [1] is −0.12%.

On to `O=[N+]([O-])c1cccc(/C=N/Nc2nc(N/N=C/c3cccc([N+](=O)[O-])c3)nc(N3CCCCC3)n2)c1` [compound 7f, 2,4-Bis[(E)-2-[(3-Nitrophenyl)methylidene]hydrazin-1-yl]-6-(piperidin-1-yl)-1,3,5-triazine], for which the inhibition at 10 µM in the test with HCT-15 (setting [7]) was 53.5%; with HL-60(TB) (setting [8]), 42.8%; in the test on SF-295 (setting [9]) it was 28.3%; in the test with RPMI-8226 (setting [10]), 69.3%; in the test on RXF 393 (setting [11]), -3.98%. In test [1], the “Mean GI %” value was 30.94%.

`Clc1cccc(/C=N/Nc2nc(N/N=C/c3cccc(Cl)c3Cl)nc(N3CCCCC3)n2)c1Cl` [compound 7h, 2,4-Bis[(E)-2-[(2,3-Dichlorophenyl)methylidene]hydrazin-1-yl]-6-(piperidin-1-yl)-1,3,5-triazine]: the inhibition at 10 µM is 34.5% with HCT-15 (setting [2]); -6.32% with HL-60(TB) (setting [3]); 7.34% in the test with SF-295 (setting [4]); 6.61% in the test with RPMI-8226 (setting [5]); -11.8% in the test on RXF 393 (setting [6]). The “Mean GI %” value in test [1] worked out at 18.81%.

Consider `O=[N+]([O-])c1cc(/C=N/Nc2nc(N/N=C/c3ccc(Cl)c([N+](=O)[O-])c3)nc(N3CCCCC3)n2)ccc1Cl` [compound 7i, 2,4-Bis[(E)-2-[(4-Chloro-3-nitrophenyl)methylidene]hydrazin-1-yl]-6-(piperidin-1-yl)-1,3,5-triazine], for which the inhibition at 10 µM amounted to 50.3% in the test on HCT-15 (setting [7]); 58.1% in the test with HL-60(TB) (setting [8]); 6.78% in the test on SF-295 (setting [9]); 81.7% in the test with RPMI-8226 (setting [10]); 0.13% with RXF 393 (setting [11]). Also, the “Mean GI %” value in test [1] was 37.38%.

For the molecule `Oc1ccc(/C=N/Nc2nc(N/N=C/c3ccc(O)c(O)c3)nc(N3CCCCC3)n2)cc1O` [compound 7j, 4-[(1e)-(2-{4-[(E)-2-[(3,4-Dihydroxyphenyl)methylidene]hydrazin-1-yl]-6-(piperidin-1-yl)-1,3,5-triazin-2-yl}hydrazin-1-ylidene)methyl]benzene-1,2-diol], the inhibition at 10 µM in the test on HCT-15 (setting [2]) was 16.1%; with HL-60(TB) (setting [3]) it was -1.96%; in the test with SF-295 (setting [4]) it was 0.36%; in the test on RPMI-8226 (setting [5]), -7.6%; with RXF 393 (setting [6]) it was -17.8%. In addition, in test [1], the “Mean GI %” value is 1.89%.

As for `C(=N\Nc1nc(N/N=C/c2ccc3c(c2)OCO3)nc(N2CCCCC2)n1)/c1ccc2c(c1)OCO2` [compound 7k, 2,4-Bis[(E)-2-(2H-1,3-Benzodioxol-5-ylmethylidene)hydrazin-1-yl]-6-(piperidin-1-yl)-1,3,5-triazine], the inhibition at 10 µM was 66.2% in the test on HCT-15 (setting [2]); 39.6% in the test on HL-60(TB) (setting [3]); 22.2% in the test with SF-295 (setting [4]); 43.8% in the test on RPMI-8226 (setting [5]); 20.3% in the test on RXF 393 (setting [6]). The “Mean GI %” value in test [1] is given as 14.53%.

As for `C/C(=N\Nc1nc(N/N=C(\C)c2ccc([N+](=O)[O-])cc2)nc(N2CCOCC2)n1)c1ccc([N+](=O)[O-])cc1` [compound 8a, 2-(Morpholin-4-yl)-4,6-bis[(E)-2-[1–(4-nitrophenyl)ethylidene]hydrazin-1-yl]-1,3,5-triazine], the inhibition at 10 µM in the test with HCT-15 (setting [7]) is 33.9%; in the test with HL-60(TB) (setting [8]), 7.4%; with SF-295 (setting [9]) it was 33.5%; in the test with RPMI-8226 (setting [10]) it was 35.3%; in the test on RXF 393 (setting [11]), 26.3%. Also, the “Mean GI %” value in test [1] stood at 23.27%.

Turning to `COC(=O)C(Cc1ccccc1)Nc1nc(NC(Cc2ccccc2)C(=O)OC)nc(N2CCOCC2)n1` (stereo not shown) [compound 8c, Methyl 2-({4-[(1-methoxy-1-oxo-3-phenylpropan-2-yl)amino]-6-(morpholin-4-yl)-1,3,5-triazin-2-yl}amino)-3-phenylpropanoate], the inhibition at 10 µM in the test with HCT-15 (setting [2]) was -6.16%; in the test on HL-60(TB) (setting [3]), -2.51%; in the test with SF-295 (setting [4]), -7.74%; with RPMI-8226 (setting [5]), 1.47%; in the test on RXF 393 (setting [6]), -12.7%.

For the molecule `O=C(NNc1nc(NNC(=O)c2ccccc2)nc(N2CCOCC2)n1)c1ccccc1` [compound 8d, N'-[4-(morpholin-4-yl)-6-(phenylhydrazido)-1,3,5-triazin-2-yl]benzohydrazide], the inhibition at 10 µM was -2.67% in the test with HCT-15 (setting [2]); -15.3% in the test on HL-60(TB) (setting [3]); -0.06% in the test with SF-295 (setting [4]); -9.42% in the test with RPMI-8226 (setting [5]); 0.99% in the test on RXF 393 (setting [6]).
